According to patent publication US20160031985A1, “CHARGE-ENGINEERED ANTIBODIES OR COMPOSITIONS OF PENETRATION-ENHANCED TARGETING PROTEINS AND METHODS OF USE” (PERMEON BIOLOGICS, INC., priority 2013, published 2016):

Tests used:
Format in all cases: cell-based
[1] = system: MDA-MB-468 (Her2^−) cells; assay: Time course of cellular uptake in mixed cell populations, flow cytometry (Example 6); conditions: Her2− (MDA-MB-468), 0.1 μM, untreated 4,134
Procedure: (§1) The media were replaced with serum free media containing 0.1 μM of protein listed below and incubated for 10 minutes, 30 minutes or 4 hours. Cells were washed 3×PBS, trypsinized, stained with Her2 Antibody-APC for 0.5 hours, washed with PBS and then analyzed by flow cytometry with detection of GFP.

AU565 (Her2^+) cells [2] = assay: as above; conditions: 0.1 μM, untreated 6,081
Procedure: as §1

[3] = system: MDA-MB-468 (Her2^−) cells; assay: Internalization of GFP proteins by flow cytometry (Example 4); conditions: 1 μM protein, 2 hours, serum free media, untreated cells 4,064
Procedure: MDA-MB-468 cells express an insignificant level of Her2 compared to unstained background and are considered Her2 negative (referred to as Her2), whereas AU565 cells express a high level of Her2 (referred to as Her2^+).
The media were replaced with serum free media containing 1 μM of a protein listed below, and incubated for 2 hours. Cells were washed 3×PBS, trypsinized, fixed with 4% PFA, washed with PBS and then analyzed by flow cytometry with detection of GFP.
Results: Flow cytometry analysis is indicative of the amount of protein internalized into the cells. FIGS. 9A and 9B show the flow cytometry data obtained for different tested samples at various conditions. The median fluorescence values obtained from the flow cytometry peak minus the median fluorescence values of untreated cells (background fluorescence) are shown in FIGS. 10A and 10B. See also Table 7. The first column indicates identifies the GFP-component of the construct used for the particular sample treatment. The second and third columns represents fluorescence in MDA-MB-468 cells following treatment with each of the GFP proteins alone (second column; examples of use of CPMs alone) or with each of the GFP-C6.5 fusion proteins (third column; examples of fusion proteins comprising a target-binding region and a CPM region). The fourth and fifth column fluorescence in AU565 cells following treatment with each of the GFP proteins alone (fourth column; examples of use of CPMs alone) or with each of the GFP-C6.5 fusion proteins (fifth column; examples of fusion proteins comprising a target-binding region and a CPM region).

AU565 (Her2^+) cells [4] = assay: as above; conditions: 1 μM protein, 2 hours, serum free media, untreated cells 5,713
Procedure: The levels of Her2 expressed on cell surface were measured in flow cytometry after staining the cells with a commercial antibody against Her2, Anti-Her2-APC (BD Bioscience, catalog #340554). MDA-MB-468 cells express an insignificant level of Her2 compared to unstained background and are considered Her2 negative (referred to as Her2), whereas AU565 cells express a high level of Her2 (referred to as Her2^+).
Results: Flow cytometry analysis is indicative of the amount of protein internalized into the cells. […] The median fluorescence values obtained from the flow cytometry peak minus the median fluorescence values of untreated cells (background fluorescence) are shown in FIGS. 10A and 10B.

[5] = system: MDA-MB-468 (Her2^−) cells; assay: Cellular uptake in mixed cell populations, flow cytometry with Her2 Ab-APC gating (Example 5); conditions: 2 h, mixed cell population; for Median Fluorescence Values, first set: MDA-MB-468 cells (Her2−), untreated 4,303; for Median Fluorescence Values, second set: Her2− (MDA-MB-468), untreated 4,776
Procedure: (§2) The media were replaced with serum free media containing indicated concentrations of protein listed below and incubated for 2 h. Cells were washed 3×PBS, trypsinized, fixed with 4% PFA, stained with Her2 Ab-APC for 0.5 hour, washed with PBS and then analyzed by flow cytometry with detection of GFP.
(§3) The tested proteins of the first and second sets of experiments were applied to the mixed cell population for two hours.
(§4) The above data were also plotted in FIGS. 13A-13H to show the median fluorescence value minus background fluorescence of untreated cells (background adjusted fluorescence) (Y-axis) as a function of concentration (X-axis) for each of the tested proteins in this Example. Cellular uptake of the proteins was measured by GFP fluorescence. Her2 expression level was measured by using a Her2 antibody conjugated with allophycocyanin (APC). Gating was applied to the flow cytometry data to identify Her2^low versus Her2^high populations. […] The Her2^− profiles (diamond) are indicative of the profile of charged GFP alone. The Her2^− profiles (square) are indicative of the profile of the charged GFP in combination with the target-binding region—C6.5 scFv. The data of sfGFP-C6.5 on the Her2^high cells reflects the profile of the target-binding region (C6.5) by itself.

AU565 (Her2^+) cells [6] = assay: as above; conditions: 2 h, mixed cell population; for Median Fluorescence Values, first set: AU565 cells (Her2+), untreated 6,875; for Median Fluorescence Values, second set: Her2+ (AU565), untreated 11,162
Procedure: as §2, §3, §4

SKOV-3 cells (Her2^+) = assay: Cellular uptake of GFP proteins by fluorescence microscopy; conditions: 1 μM of proteins, 1 hour
Procedure: These images were taken to assess cellular uptake of these GFP-containing proteins by fluorescence microscopy. The images shown are an overlay of phase contrast and GFP fluorescence images.
In addition, SKOV-3 cells (Her2) were treated with 1 μM of proteins for 1 hour, and then images were taken to assess cellular uptake of GFP proteins by fluorescence microscopy (FIG. 11A).

Molecule | Internalization over time (GFP fluorescence, flow cytometry) ([1]; 10 min) | Internalization over time (GFP fluorescence, flow cytometry) ([1]; 30 min) | Internalization over time (GFP fluorescence, flow cytometry) ([1]; 4 h) | Internalization over time (GFP fluorescence, flow cytometry) (AU565 (Her2^+) cells [2]; 10 min) | Internalization over time (GFP fluorescence, flow cytometry) (AU565 (Her2^+) cells [2]; 30 min) | Internalization over time (GFP fluorescence, flow cytometry) (AU565 (Her2^+) cells [2]; 4 h) | Median fluorescence (GFP, flow cytometry) [3] | Median fluorescence (GFP, flow cytometry) (AU565 (Her2^+) cells [4]) | Median Fluorescence Values, first set ([5]; 0.03 uM) | Median Fluorescence Values, first set ([5]; 0.1 uM) | Median Fluorescence Values, first set ([5]; 0.3 uM) | Median Fluorescence Values, first set ([5]; 1 uM) | Median Fluorescence Values, first set (AU565 (Her2^+) cells [6]; 0.03 uM) | Median Fluorescence Values, first set (AU565 (Her2^+) cells [6]; 0.1 uM) | Median Fluorescence Values, first set (AU565 (Her2^+) cells [6]; 0.3 uM) | Median Fluorescence Values, first set (AU565 (Her2^+) cells [6]; 1 uM) | binding and cellular uptake by fluorescence microscopy (SKOV-3 cells (Her2^+)) | Median Fluorescence Values, second set ([5]; 0.1 uM) | Median Fluorescence Values, second set ([5]; 0.3 uM) | other results
+15GFP-C6.5: fusion of +15GFP (CPM) and anti-Her2 scFv C6.5 via (S4G)6 spacer; SEQ ID NO: 14 | 10,665 | 22,262 | 144,923 | 18,606 | 35,981 | 148,261 | 313,629 | 413,838 | 13,012 | 36,343 | 76,116 | 155,734 | 37,663 | 74,673 | 128,374 | 180,065 | – | – | – | –
C6.5-+15GFP: fusion with C6.5 N-terminal to +15GFP; SEQ ID NO: 16 | 13,517 | 17,194 | 96,599 | 37,044 | 61,007 | 184,844 | 767,627 | 2,170,916 | 13,355 | 36,070 | 82,571 | 306,260 | 75,821 | 162,337 | 305,944 | 822,351 | internalized efficiently in the cells | – | – | –
sfGFP-C6.5: control fusion of sfGFP and anti-Her2 scFv C6.5, not positively charged; SEQ ID NO: 13 [reference compound] | 4,081 | 3,986 | 4,704 | – | – | – | 5,632 | – | – | – | – | – | – | – | – | – | – | 4,824 | 4,947 | Median Fluorescence Values, second set ([5]; 0.03 uM): 4,460
sfGFP: superfolder GFP with His6 tag, not positively charged; SEQ ID NO: 10 [reference compound] | 3,887 | 4,025 | 4,067 | 5,952 | 6,024 | 5,924 | 5,115 | 5,896 | – | – | – | – | – | – | – | – | – | 4,519 | 5,245 | Median Fluorescence Values, second set (AU565 (Her2^+) cells [6]; 0.1 uM): 10,937; Median Fluorescence Values, second set (AU565 (Her2^+) cells [6]; 0.3 uM): 12,131
+2GFP-C6.5: fusion of +2GFP and C6.5; a or b variant not stated (protein, left off: large carriers; small tags and cut ends) scFv: QVQLLQSGAELKKPGESLKISCKGSGYSFTSYWIAWVRQMPGKGLEYMGLIYPGDSDTKYSPSFQGQVTISVDKSVSTAYLQWSSLKPSDSAVYFCARHDVGYCSSSNCAKWPEYFQHWGQGTLVTVSSGGGGSGGGGSGGGGSQSVLTQPPSVSAAPGQKVTISCSGSSSNIGNNYVSWYQQLPGTAPKLLIYGHTNRPAGVPDRFSGSKSGTSASLAISGFRSEDEADYYCAAWDDSLSGWVFGGGTKLTVLGGHGHHHHHH | – | – | – | – | – | – | – | – | – | – | – | – | – | – | – | – | bound to SKOV-3 cells through Her2 but did not internalize in the cells | – | – | –
